Data from US9273330B2, “Butanol tolerance in microorganisms” (Butamax Advanced Biofuels LLC, priority 2012, dated 2016).

Tests used:
isobutanologen PNY1530 = assay: Isobutanol selection: viable cell count after 24 hour exposure of high-density PNY1530 cultures; assay type: cell-based, Saccharomyces cerevisiae
Description: Cultures of PNY1530 were subjected to five rounds of selection in increasing concentrations of isobutanol. The first round of isobutanol selection was initiated by growing PNY1530 to OD600=1.8 in 100 ml of SEU culture medium (yeast nitrogen base supplemented with Sigma yeast synthetic dropout medium without uracil (Sigma Y1501) and with 0.2% ethanol). The cells were centrifuged, resuspended in 100 ml of fresh culture medium and grown for several hours to approximately 3 OD600 units. The culture was centrifuged and resuspended at OD600=100 (approximately 5×10^8 cfu/ml) in 3 ml of culture medium without ethanol. A small sample was removed from the cell suspension for a viable cell count, and the remaining cell suspension was divided into three cultures containing 1.5% isobutanol, 1.7% isobutanol or 2.0% isobutanol. Each culture was incubated at 30° C. on a roller drum for 24 hours. The cultures were then centrifuged, and the cell pellets were each resuspended in 1 ml of culture medium without isobutanol or ethanol. Small samples were removed from the cultures for viable cell counts, and the remaining portion of each cell suspension (approximately 975 μl) was inoculated into 10 ml of SEU culture medium. The cultures were incubated at 30° C. with shaking. In general, each subsequent round of isobutanol selection was initiated with cells that had survived the highest level of isobutanol selection in the previous round of exposure.
Increased numbers of survivors were observed following each exposure to isobutanol (Table 7). For example, only 1.8% of the cells survived 24 hour exposure to 2.0% isobutanol during Selection I whereas 100% of the population survived 24 hour exposure to 2.0% isobutanol during Selection IV.

[1] = system: population of cells that had survived 24 hour exposure to 2.5% isobutanol during Selection IV; assay: Serial passage in SEGU culture medium with glucose and isobutanol; assay type: cell-based, Saccharomyces cerevisiae; conditions: 30° C., after 48 hours (1:2 dilution after 24 hours)
Description: A population of cells that had been evolved through four isobutanol exposures (Selection IV, Example 2) was repeatedly sub-cultured in growth medium supplemented with glucose and isobutanol to select for cells that were better able to utilize glucose in the presence of isobutanol.
A population of cells that had survived 24 hour exposure to 2.5% isobutanol during Selection IV (see Table 7) was diluted into SEGU culture medium (SEU with 0.2% glucose) to OD600=0.8. The diluted cell suspension was divided into 1.5 ml cultures, dispensed into 2 ml sterile screw cap tubes and supplemented with various concentrations of isobutanol. The cultures were incubated at 30° C. on a roller drum. After 24 hours, the cultures were diluted 1:2 with the SEGU culture medium comprising the same amount of isobutanol as the previous culture. […] The 0.5% culture was serially sub-cultured 10 times by diluting the culture to approximately OD600=0.5 in SEGU culture medium containing 0.5% isobutanol and incubating the diluted culture at 30° C. for 24 to 48 hours before diluting the culture again.

SMILES: CC(C)CO [Isobutanol, 2-methyl-1-propanol]
- Percent Survival (isobutanologen PNY1530; 1.5% isobutanol, Selection I): 73
- Percent Survival (isobutanologen PNY1530; 1.7% isobutanol, Selection I): 53
- Percent Survival (isobutanologen PNY1530; 2.0% isobutanol, Selection I): 1.8 →
- Percent Survival (isobutanologen PNY1530; 2.0% isobutanol, Selection I, listed as isobutanol): 1.8
- Percent Survival (isobutanologen PNY1530; 2.0% isobutanol, Selection II): 12 →
- Percent Survival (isobutanologen PNY1530; 2.0% isobutanol, Selection III): 21
- Percent Survival (isobutanologen PNY1530; 2.0% isobutanol, Selection IV): 100
- Percent Survival (isobutanologen PNY1530; 2.2% isobutanol, Selection III): 0.8
- Percent Survival (isobutanologen PNY1530; 2.2% isobutanol, Selection IV): 45
- Percent Survival (isobutanologen PNY1530; 2.5% isobutanol, Selection II): 0.0003
- Percent Survival (isobutanologen PNY1530; 2.5% isobutanol, Selection III): 0.0006 →
- Percent Survival (isobutanologen PNY1530; 2.5% isobutanol, Selection IV): 14 →
- Percent Survival (isobutanologen PNY1530; 2.5% isobutanol, Selection V): 4.5
- Percent Survival (isobutanologen PNY1530; 2.7% isobutanol, Selection II): no survivors were detected
- Percent Survival (isobutanologen PNY1530; 2.7% isobutanol, Selection V): 0.004
- highest concentration that permitted growth [1]: 0.5%
